The source of these data is patent publication US7919076B2, “PH-sensitive polymeric conjugates of an anthracycline cancerostatic drug for targeted therapy” (Zentiva, k.s., priority 2001, dated 2011).

In the assay the test system is T-cellular lymphoma (EL4). Nature of the assay: in vivo anti-tumor activity, s.c. T-cellular lymphoma EL4 in C57BL/10 mice. The arrangement: species or system mouse. On the procedure: Mice of inbred strain C57BL/10 were subcutaneously transplanted with T-cellular lymphoma (EL4). The tumor cells were injected in the lower half of the back of experimental animals in the amount of 1×10^5 cells/mouse. The cell transplantation day was marked day 0. Polymeric conjugates with hydrolytically released doxorubicin were then administered intraperitoneally either on day 1, 3, 5, 7 and 9 (protective regimen), on day 10, 12, 14, 16 and 18 or on day 12, 14, 16, 18 and 20 (therapeutic regimen). The daily dose of doxorubicin was 50 μg/mouse.

Regarding `COc1cccc2c1C(=O)c1c(O)c3c(c(O)c1C2=O)C[C@@](O)(C(=O)CO)C[C@@H]3O[C@H]1C[C@H](N)[C@H](O)[C@H](C)O1` [doxorubicin], the “anti-tumor effect (tumor growth, survival)” value (EL4, i.p., doxorubicin 50 μg/mouse daily dose) is listed as “very limited effect”. Moreover, where the note is “EL4, control group 35 days”, the “maximum survival period of the experimental animals” value is 40 days.
